*1 amine or outer side, *2 acyl side, *3 side chain or, on linkers, in order; H or OH if unused. Where a SMILES comes first, the peptide text is derived from it. Where no end group is shown, it is not given here. Side-chain parts run from the residue outwards. [ ]: non-standard residue; d: D form. The star is where a group is joined. C20 diacid = O=C(O)CCCCCCCCCCCCCCCCCCC(=O)*; γGlu = O=C(O)[C@H](CCC(=O)[*:2])N[*:1]; NMeI = CC[C@H](C)[C@H](NC)C(=O)O; Pentanoyl = CCCCC(=O)*; Aib = CC(C)(N)C(=O)O
Tests used:
[1] = Chemical stability in buffer (pH 7.4 / pH 4.5), % purity loss; format: physicochemical; conditions: 100 mM phosphate buffer pH 7.4; 40° C. vs 5° C.; 14 or 28 days
Outline: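 Compounds dissolved at 10 mg/mL target in 100 mM phosphate (pH 7.4) or 100 mM acetate (pH 4.5) buffer for 1 h at room temperature, then centrifuged. Diluted supernatant stored at 5 °C or 40 °C for 14 or 28 days; % purity loss by LC-UV.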

[2] = Pharmacokinetics in male Sprague Dawley rats after subcutaneous administration; format: in vivo; conditions: plasma, rat, SC
CFR1R receptor = molecular target: T1, CFR1R receptor (Homo sapiens, UniProt P34998); experiment: Activity at anti-target CFR1R receptor, cAMP assay in CRF1R-overexpression CHO-K1 cells; format: cell-based; conditions: 100% = Sauvagine at 100 nM
T1 construct: host or cells: CHO-K1 (clone 2)
T1 sequence (P34998 24-415): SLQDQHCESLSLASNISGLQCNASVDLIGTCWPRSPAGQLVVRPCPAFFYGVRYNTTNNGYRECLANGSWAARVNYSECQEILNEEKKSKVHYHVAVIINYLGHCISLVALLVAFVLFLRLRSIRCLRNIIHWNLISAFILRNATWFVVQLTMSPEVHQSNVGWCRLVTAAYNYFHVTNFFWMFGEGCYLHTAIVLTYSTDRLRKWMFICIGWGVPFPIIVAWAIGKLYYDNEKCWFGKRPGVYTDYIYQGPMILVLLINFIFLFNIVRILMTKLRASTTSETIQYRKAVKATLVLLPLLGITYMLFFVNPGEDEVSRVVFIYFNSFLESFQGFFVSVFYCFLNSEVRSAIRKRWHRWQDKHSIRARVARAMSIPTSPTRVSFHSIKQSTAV
Outline: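 cAMP readout in CRF1R-overexpressing CHO-K1 cells (clone 2), run as for the TeloHAEC assay at 4000 cells/well final. Cells came from cryopreserved banks. Sauvagine at 100 nM defined 100% activation.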

Sprague Dawley rats = experiment: Effect on systolic blood pressure, telemetry in Sprague Dawley rats; format: in vivo, rat; conditions: 0.1 mg/kg SC
Outline: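 Sprague Dawley rats with abdominal-aorta telemetry catheters, recovered ≥10 days, received 0.1 mg/kg SC of compound or vehicle. Systolic pressure recorded 1 h pre-dose as baseline, then continuously up to 48 hours, expressed as % change from baseline; duration of action is last time point with a BP effect (n=2).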

human CRF2a receptor = molecular target: T2, human CRF2a receptor (Homo sapiens, UniProt Q13324); experiment: Activity at human CRF2a receptor, cAMP functional assay in TeloHEAC cells; format: cell-based; conditions: TeloHEAC cells stably expressing human CRF2a receptor, relative to urocortin 2 (100 nM = 100%)
T2 construct: expressed in transfected cells; host or cells: TeloHEAC cells
T2 sequence (Q13324 1-411): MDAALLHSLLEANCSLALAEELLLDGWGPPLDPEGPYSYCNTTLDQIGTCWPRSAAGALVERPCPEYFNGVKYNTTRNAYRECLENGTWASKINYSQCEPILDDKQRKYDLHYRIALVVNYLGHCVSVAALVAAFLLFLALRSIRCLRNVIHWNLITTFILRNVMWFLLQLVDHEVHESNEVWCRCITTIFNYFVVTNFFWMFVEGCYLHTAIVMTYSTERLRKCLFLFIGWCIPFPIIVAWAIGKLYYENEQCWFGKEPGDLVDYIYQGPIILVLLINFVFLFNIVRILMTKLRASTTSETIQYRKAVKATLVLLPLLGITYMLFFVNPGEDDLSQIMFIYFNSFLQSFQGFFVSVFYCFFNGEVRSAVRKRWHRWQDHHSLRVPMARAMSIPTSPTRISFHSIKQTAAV
Outline: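 TeloHEAC cells stably expressing human CRF2a (10000 cells/well, suspended in HBSS/20 mM HEPES with 2 mM IBMX) were exposed to compounds for 30 min at 37 °C. cAMP was read as the 665/620 nm fluorescence ratio after 1 h at room temperature. EC50 was derived relative to 100 nM urocortin 2, set as 100%.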

[3] = Pharmacokinetics in male Sprague Dawley rats after subcutaneous administration; format: in vivo; conditions: plasma, rat
[4] = In vitro subcutaneous tissue supernatant (SCts) stability and metabolite identification, rat; format: in vitro ADME; set-up: remaining at 2 h: dose or concentration left out as unconfirmed; conditions: male, Sprague Dawley; rat subcutaneous tissue supernatant (SCts), 37° C, 2 h
[5] = molecular target: T3, CRF1R (corticotropin-releasing factor receptor 1), on the CRF1R-overexpression CHO-K1 cell line clone 2 (UniProt P34998 24-415, limits assumed); experiment: cell-based or functional assay
T3 sequence (looked up): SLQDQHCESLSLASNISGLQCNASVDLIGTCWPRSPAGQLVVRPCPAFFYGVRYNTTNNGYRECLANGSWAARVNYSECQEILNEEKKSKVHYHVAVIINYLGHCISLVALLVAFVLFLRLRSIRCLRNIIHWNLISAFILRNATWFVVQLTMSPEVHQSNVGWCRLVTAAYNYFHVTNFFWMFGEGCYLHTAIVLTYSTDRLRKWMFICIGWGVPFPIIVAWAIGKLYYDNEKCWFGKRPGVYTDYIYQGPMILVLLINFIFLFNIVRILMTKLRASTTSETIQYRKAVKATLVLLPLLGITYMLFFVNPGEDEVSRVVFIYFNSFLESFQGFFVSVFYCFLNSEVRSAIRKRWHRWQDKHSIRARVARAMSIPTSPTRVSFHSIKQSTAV

## CCCCC(=O)N[C@H](C(=O)N[C@@H](CC(C)C)C(=O)N[C@@H](CO)C(=O)N[C@@H](CC(C)C)C(=O)N[C@@H](CC(=O)O)C(=O)N[C@@H](C(=O)N1CCC[C@H]1C(=O)N[C@H](C(=O)N[C@@H](CCCCN)C(=O)N[C@@H](CC(C)C)C(=O)N[C@@H](CCCCNC(=O)CC[C@H](NC(=O)CCCCCCCCCCCCCCCCCCC(=O)O)C(=O)O)C(=O)N[C@@H](CCCCN)C(=O)N[C@H](C(=O)N[C@@H](CC(C)C)C(=O)N[C@@H](CC(C)C)C(=O)N[C@@H](CCC(=O)O)C(=O)N[C@@H](CCC(N)=O)C(=O)N[C@@H](CCC(=O)O)C(=O)N[C@@H](CCCCN)C(=O)N[C@@H](CCC(N)=O)C(=O)N[C@@H](CCCCN)C(=O)N[C@@H](CCCCN)C(=O)N[C@@H](CCC(N)=O)C(=O)N[C@@H](CCCNC(=N)N)C(=O)N[C@@H](CCC(=O)O)C(=O)N[C@@H](CCC(N)=O)C(=O)N[C@@H](C)C(=O)N[C@@H](CCC(=O)O)C(=O)N[C@H](C(=O)N[C@@H](CC(N)=O)C(=O)NC(C)(C)C(=O)N[C@@H](CCC(N)=O)C(=O)N[C@H](C(=O)N[C@@H](CC(C)C)C(=O)N[C@@H](C)C(=O)N[C@@H](CCC(N)=O)C(=O)N[C@H](C(N)=O)C(C)C)[C@@H](C)CC)[C@@H](C)O)[C@@H](C)CC)[C@@H](C)CC)C(C)C)C(C)C [compound 219] (Pentanoyl-VLSLD[dV]PIKLK([γGlu-C20 diacid])KILLEQEKQKKQREQAETN[Aib]QILAQV-NH2)
[1]
  Buffer stability pH 7.4 % purity loss: −2.1/Not Tested %
[2]; 0.1 mg/kg
  AUC(0-t): 4520 ng·h/mL
  Cmax: 156 ng/mL
CFR1R receptor
  Emax (% I): 48 % I
Sprague Dawley rats; 8 h, n=2
  Systolic blood pressure (Mean) % change from baseline, 8 h: −10%
Sprague Dawley rats; 12 h, n=2
  Systolic blood pressure (Mean) % change from baseline, 12 h: −13%
Sprague Dawley rats; 24 h, n=2
  Systolic blood pressure (Mean) % change from baseline, 24 h: −10%
Sprague Dawley rats; last time point with an effect on BP still observed
  Duration of action: >24 h
Human CRF2a receptor
  EC50: 0.16 nM
[3]; IV, 0.05 mg/kg
  AUC(0-t): 5320 ng·h/mL
  half-life: 6 h
[3]; SC, 0.1 mg/kg
  Tmax: 8 h
  half-life: 15 h
[4]
  remaining at 2 h: 71%

## CCCCC(=O)N[C@H](C(=O)N[C@@H](CC(C)C)C(=O)N[C@@H](CO)C(=O)N[C@@H](CC(C)C)C(=O)N[C@@H](CC(=O)O)C(=O)N[C@@H](C(=O)N1CCC[C@H]1C(=O)N[C@H](C(=O)N[C@@H](CCCCN)C(=O)N[C@@H](CC(C)C)C(=O)N[C@@H](CCCCNC(=O)CC[C@H](NC(=O)CCCCCCCCCCCCCCCCCCC(=O)O)C(=O)O)C(=O)N[C@@H](CCCCN)C(=O)N[C@H](C(=O)N[C@@H](CC(C)C)C(=O)N[C@@H](CC(C)C)C(=O)N[C@@H](CCC(=O)O)C(=O)N[C@@H](CCC(N)=O)C(=O)N[C@@H](CCC(=O)O)C(=O)N[C@@H](CCCCN)C(=O)N[C@@H](CCC(N)=O)C(=O)N[C@@H](CCCCN)C(=O)N[C@@H](C)C(=O)N[C@@H](CCC(N)=O)C(=O)N[C@@H](CCCNC(=N)N)C(=O)N[C@@H](CCC(=O)O)C(=O)N[C@@H](CCC(N)=O)C(=O)N[C@@H](C)C(=O)N[C@@H](CCC(=O)O)C(=O)N[C@H](C(=O)N[C@@H](CC(N)=O)C(=O)NC(C)(C)C(=O)N[C@@H](CCC(N)=O)C(=O)N[C@H](C(=O)N[C@@H](CC(C)C)C(=O)N[C@@H](C)C(=O)N[C@@H](CCC(N)=O)C(=O)N[C@H](C(N)=O)C(C)C)[C@@H](C)CC)[C@@H](C)O)[C@@H](C)CC)[C@@H](C)CC)C(C)C)C(C)C [compound 222] (Pentanoyl-VLSLD[dV]PIKLK([γGlu-C20 diacid])KILLEQEKQKAQREQAETN[Aib]QILAQV-NH2)
[1]
  Buffer stability pH 7.4 % purity loss: 0.0/Not Tested %
[2]; 0.05 mg/kg
  AUC(0-t): 2890 ng·h/mL
  Cmax: 113 ng/mL
  Tmax: 8 h
  half-life: 12 h
CFR1R receptor
  Emax (% I): 50 % I
Human CRF2a receptor
  EC50: 0.14 nM
[3]; IV, 0.025 mg/kg
  AUC(0-t): 3320 ng·h/mL
  half-life: 7 h
[4]
  remaining at 2 h: 62%

B1: peptide of SEQ ID NO: 229 (peptide)
peptide: [NMeI]VLSLD[dV]PIGLK([γGlu-C20 diacid])KILLEQEKQKKQREQAETN[Aib]QILAQV-NH2
modifications: N-terminus assumed
SMILES: CC[C@H](C)[C@H](NC)C(=O)N[C@H](C(=O)N[C@@H](CC(C)C)C(=O)N[C@@H](CO)C(=O)N[C@@H](CC(C)C)C(=O)N[C@@H](CC(=O)O)C(=O)N[C@@H](C(=O)N1CCC[C@H]1C(=O)N[C@H](C(=O)NCC(=O)N[C@@H](CC(C)C)C(=O)N[C@@H](CCCCNC(=O)CC[C@H](NC(=O)CCCCCCCCCCCCCCCCCCC(=O)O)C(=O)O)C(=O)N[C@@H](CCCCN)C(=O)N[C@H](C(=O)N[C@@H](CC(C)C)C(=O)N[C@@H](CC(C)C)C(=O)N[C@@H](CCC(=O)O)C(=O)N[C@@H](CCC(N)=O)C(=O)N[C@@H](CCC(=O)O)C(=O)N[C@@H](CCCCN)C(=O)N[C@@H](CCC(N)=O)C(=O)N[C@@H](CCCCN)C(=O)N[C@@H](CCCCN)C(=O)N[C@@H](CCC(N)=O)C(=O)N[C@@H](CCCNC(=N)N)C(=O)N[C@@H](CCC(=O)O)C(=O)N[C@@H](CCC(N)=O)C(=O)N[C@@H](C)C(=O)N[C@@H](CCC(=O)O)C(=O)N[C@H](C(=O)N[C@@H](CC(N)=O)C(=O)NC(C)(C)C(=O)N[C@@H](CCC(N)=O)C(=O)N[C@H](C(=O)N[C@@H](CC(C)C)C(=O)N[C@@H](C)C(=O)N[C@@H](CCC(N)=O)C(=O)N[C@H](C(N)=O)C(C)C)[C@@H](C)CC)[C@@H](C)O)[C@@H](C)CC)[C@@H](C)CC)C(C)C)C(C)C
[5]
  EC50 [nM] (cAMP, CRF1R-overexpression CHO-K1 cells): 203 nM
  Emax (% I) (cAMP, 100% = Sauvagine at 100 nM): 43 % I

B2: peptide of SEQ ID NO: 228 (peptide)
peptide: Pentanoyl-VLSLD[dV]PIGLK([γGlu-C20 diacid])KILLEQEKQKKQREQAETN[Aib]QILAQV-NH2
SMILES: CCCCC(=O)N[C@H](C(=O)N[C@@H](CC(C)C)C(=O)N[C@@H](CO)C(=O)N[C@@H](CC(C)C)C(=O)N[C@@H](CC(=O)O)C(=O)N[C@@H](C(=O)N1CCC[C@H]1C(=O)N[C@H](C(=O)NCC(=O)N[C@@H](CC(C)C)C(=O)N[C@@H](CCCCNC(=O)CC[C@H](NC(=O)CCCCCCCCCCCCCCCCCCC(=O)O)C(=O)O)C(=O)N[C@@H](CCCCN)C(=O)N[C@H](C(=O)N[C@@H](CC(C)C)C(=O)N[C@@H](CC(C)C)C(=O)N[C@@H](CCC(=O)O)C(=O)N[C@@H](CCC(N)=O)C(=O)N[C@@H](CCC(=O)O)C(=O)N[C@@H](CCCCN)C(=O)N[C@@H](CCC(N)=O)C(=O)N[C@@H](CCCCN)C(=O)N[C@@H](CCCCN)C(=O)N[C@@H](CCC(N)=O)C(=O)N[C@@H](CCCNC(=N)N)C(=O)N[C@@H](CCC(=O)O)C(=O)N[C@@H](CCC(N)=O)C(=O)N[C@@H](C)C(=O)N[C@@H](CCC(=O)O)C(=O)N[C@H](C(=O)N[C@@H](CC(N)=O)C(=O)NC(C)(C)C(=O)N[C@@H](CCC(N)=O)C(=O)N[C@H](C(=O)N[C@@H](CC(C)C)C(=O)N[C@@H](C)C(=O)N[C@@H](CCC(N)=O)C(=O)N[C@H](C(N)=O)C(C)C)[C@@H](C)CC)[C@@H](C)O)[C@@H](C)CC)[C@@H](C)CC)C(C)C)C(C)C
[5]
  EC50 [nM] (cAMP, CRF1R-overexpression CHO-K1 cells): 90.5 nM
  Emax (% I) (cAMP, 100% = Sauvagine at 100 nM): 62 % I
